Measured values published in US8378112B2, “Glycyrrhetinic acid derivative and use thereof” (INI Corporation, priority 2008, dated 2013).

Legend:
[1] = test system: C57BL/6J mice; assay: Hippocampal glutamate concentration determination (microdialysis, LPS stimulus); type: in vivo, mouse; conditions: 20 mg/kg intraperitoneal simultaneously with 10 μg/2 μl LPS stimulus; FIG. 13
Method: A microdialysis catheter was indwelled stereotaxically (in place) into the hippocampus of C57BL/6J mice (8 weeks of age, female, n=5 to 7). After settlement for 48 hours, the determination of the hippocampal glutamate with time was started using high-speed liquid chromatography (HPLC, HITEC-500 GAD, made by Eicom Corp. A stimulus was given by administering 10 μg/2 μl of lipopolysaccharide (LPS) through said catheter, along with an intraperitoneal injection of 20 mg/kg body weight CBX or Compound B simultaneously with the LPS stimulus administration, for a pharmacological efficacy assessment. The hippocampal glutamate concentration was quantified as a % value relative to the average value thereof from 120 minutes to 60 minutes before the stimulus was given to each individual.

[2] = test system: mice; type: in vivo; conditions: intraperitoneal injection of 200 and 1000 mg/kg body weight
[3] = test system: LPS-activated microglia; assay: Inhibitory effect on glutamate production by activated microglia (glutamate in neuronal medium cultured with microglia conditioned medium); type: cell-based, mouse; conditions: for glutamate concentration in the neuron culture media: microglia cultured with 1 μg/ml LPS and compound at 1, 10, 100 μM for 24 hours
Method: (§1) Next, Compound A and Compound B were checked as to their inhibitory effect on glutamate production in activated microglia. That is, mouse primary microglia were isolated from primary mixed glial cell cultures, prepared from neonatal C57BL/6 mice brains by the “shaking off” method on the 14th culture day or later (Suzumura, A. et al J. Neuroimmunol. 15, 263-278 1987). Mouse cerebral cortex primary neuronal cells were prepared from the cerebral cortices of C57BL/6J mice at embryonic day 17, and were plated on polyethyleneimine-coated cover glasses, and were used at culture day 10-13 (Takeuchi, H. et al. J. Biol. Chem. 280, 10444-10454, 2005.)
(§2) Using the culture system of neuronal cells utilizing a microglia conditioned medium, the neuronal cell damage by activated microglia was analyzed with time by the following methods (Takeuchi, H. et al. J. Biol. Chem. 280, 10444-10454, 2005.) Namely, 1 μg/ml lipopolysaccharide (LPS) and Compound A, Compound B, and carbenoxolone (CBX) at each concentration thereof (1 μM, 10 μM and 100 μM as the final concentrations) were added to a microglia culture (about 5×10^4 cells/well, a neuronal culture medium, (made by Sumitomo Bakelite Co., Ltd)) followed by incubating under 100% humidity and 5% CO2 for 24 hours. For a control, except for not adding Compound A or Compound B, microglia were incubated in a similar manner (LPS).
Each of the activated microglia conditioned media, 500 μl, 24 hrs after the administration, was added to neuronal cells (5×10^4 cells/well) in a 24-well plate, and the neuronal cells were cultured at 37° C. under 100% humidity and 5% CO2. The non-activated microglia conditioned medium was also added to neuronal cells to serve as a control (NT). 24 hours after the start of culturing, the amounts of glutamate and neuronal cell death in the conditioned medium were analyzed.
Determination of glutamate was performed by colorimetry; and neuronal cell death was assessed by the dye-exclusion method with propidium iodide under a fluorescence microscope and the terminal deoxynucleotidyl transferase-mediated […] (TUNEL) staining.

[4] = test system: Mouse cerebral cortex primary neuronal cells; assay: Cell death of neuronal cells cultured with microglia-conditioned medium (propidium iodide, TUNEL); type: cell-based; conditions: microglia conditioned medium with LPS and compound at 1, 10, 100 μM; FIG. 6
Method: as §1
as §2, with “(LPS). […]” for “(LPS).”

[5] = test system: human superoxide dismutase 1 (SOD1) G93A mutant transgenic mouse; assay: Survival extension effect in an ALS model mouse; type: in vivo; conditions: 20 mg/kg intraperitoneal 3 times a week from 6-7 weeks of age; vs PBS, p<0.0002; FIG. 7
Method: The assessment of drug efficacy was conducted using, as an animal model of neurodegenerative diseases, the human superoxide dismutase 1 (SOD1) G93A mutant transgenic mouse, which is widely used as a model of amyotrophic lateral sclerosis (ALS). Said transgenic mice were procured from Jackson Laboratory, USA.
(§3) Starting at 6-7-weeks of age, which is considered to be an early ALS onset period, they were intraperitoneally administered with 20 mg/kg body weight of Compound B, which is a novel gap junction inhibitor, CBX, or the same volume of physiological saline (PBS group) 3 times a week. The survival analysis was performed using the Kaplan-Meier method.

[6] = test system: human superoxide dismutase 1 (SOD1) (G93A) mutant transgenic mouse; assay: Survival extension effect in an acute-onset ALS model mouse; type: in vivo; conditions: 20 mg/kg intraperitoneal 3 times a week from 7-8 weeks of age; vs PBS, p<0.0001; FIG. 8
Method: The assessment of drug efficacy at different Compound B concentrations was conducted using, as an animal model of neurodegenerative diseases, a human superoxide dismutase 1 (SOD1) (G93A) mutant transgenic mouse, which is widely used as an acute-onset model of amyotrophic lateral sclerosis (ALS).
as §3, with “7-8-weeks” for “6-7-weeks”, “with 5, 10, and” for “with”, “the” for “Compound B, which is a”, “inhibitor (Compound B)” for “inhibitor, CBX,”

[7] = test system: APP/PS1 mutant double transgenic mouse; assay: Novel object exploration test in Alzheimer's disease model mouse; type: in vivo; conditions: 10 and 20 mg/kg intraperitoneal 3 times a week; FIG. 10
Method: (§4) The assessment of drug efficacy of Compound B was conducted using, as an animal model of neurodegenerative diseases, the human amyloid precursor protein/human presenilin-1 (APP/PS1) mutant double transgenic mouse, which is widely used as an Alzheimer's disease model mouse.
(§5) Starting at 9 months of age, which is considered to be an intermediate onset period, they were intraperitoneally administered with 10 and 20 mg/kg body weight of Compound B or the same volume of physiological saline (PBS group) 3 times a week. The control group was a wild type mouse (G57BL/6J) of the same age. Behavioral analysis was performed using the following three types of behavior experiments.
(1) Novel object exploration test: After the mice were habituated for 3 days (10 minutes/day) in an acrylic experiment apparatus, they were subjected to training. The raining consisted of placing two different objects in the apparatus and they were allowed to freely explore for 10 minutes. 24 hours after the training, Retention was carried out. The Retention consisted of replacing one of the two objects which had been placed in the apparatus during the training with a novel object and allowing the mice to freely explore for 5 minutes. The times spent exploring (touching, sniffing behavior and the like) the two objects were determined respectively. […]

[8] = test system: APP/PS1 mutant double transgenic mouse; assay: Fear conditioned learning test in Alzheimer's disease model mouse; type: in vivo; conditions: FIG. 11
Method: as §4, §5
(2) Fear conditioned learning test: Associative learning was assessed using a fear conditioned learning test (Mouri et al., FASEB J. 21, 2135-2148, 2007; Nagai et al., FASEB J. 17, 50-52, and 2003). The mice were placed in a transparent acrylic cage with a stainless steel grid installed therein and were subjected to a 20 second tone stimulus (80 dB), and then further to an electric stimulus (0.6 mA). A set of this combination stimulus was repeated 4 times with 15 second intervals, thereby causing fear conditioning. A contextual dependency test and a tone stimulus dependency test were carried out 24 hours after the fear conditioning. For the former, mice were placed in the […] acrylic cage with a grid where the fear conditioning took place to determine their freezing behavior for two minutes under a context of giving no tone and no electric stimuli. For the latter, mice were placed in a black acrylic cage having wood chips on the floor thereof, to determine their freezing behavior for 1 minute when given a continuous tone stimulus. The results were expressed respectively in terms of a percentage (%) of the freezing behavior time relative to the total time for determination.

[9] = test system: APP/PS1 mutant double transgenic mouse; assay: Morris water maze test in Alzheimer's disease model mouse; type: in vivo; conditions: FIG. 12
Method: as §4, §5
(3) Morris water maze test: Spatial recognition memory was evaluated using the Morris water maze test (Mouri et al. and FASEB J. 21 2135-2148 2007; Miyamoto et al; J. Neurosci. 25, 1826-1835 2005). A 60 second trial was conducted 3 times a day to determine the swimming time (escape latency) and swimming distance (distance moved) from a different start position to a fixed platform. This was performed for seven days in row; on the eighth day, a probe test was performed with the platform removed. The Probe test involved dividing the water maze into 4 regions consisting of Target (Platform), Right, Opposite, and Left and determining the ratios of the regions in which they swam over 60 seconds. The items to be determined were determined using the SMART system (Panlab, Barcelona, Spain).

[10] = 10 and 20 mg/kg intraperitoneal 3 times a week

SMILES | inhibitory effect on the rise in hippocampal glutamate [1] | deaths after acute dosing [2] | glutamate release inhibition ([3]; 100 μM, LPS-activated microglia, FIG. 5) | inhibition of glutamate release in LPS-activated microglia, comparison of compounds ([3]; LPS-activated microglia) | glutamate concentration in the neuron culture media ([3]; FIG. 5) | neuronal cell death (%) [4] | extending survival, on average [5] | extending survival, on average [6] | novel object exploratory preference [7] | freezing behavior time, tone stimulus dependency test ([8]; 20 mg/kg administered group) | freezing behavior time, contextual dependency test [8, 10] | freezing behavior time, tone stimulus dependency test [8, 10] | distance swum ([9]; 10 mg/kg, training day 1) | distance swum ([9]; 10 mg/kg, training day 5-7) | distance swum ([9]; 20 mg/kg, training day 4-7) | swimming time ([9]; 20 mg/kg, training day 4-7) | swimming time in the target region (Probe test) ([9]; Compound B administered groups, day 8 probe test)
CC1(C)[C@@H](OC(=O)CCC(=O)O)CC[C@]2(C)[C@H]3C(=O)C=C4[C@@H]5C[C@@](C)(C(=O)O)CC[C@]5(C)CC[C@@]4(C)[C@]3(C)CC[C@@H]12 [CBX, carbenoxolone, reference compound] | no inhibitory effect | all mice among the CBX administered group died within 24 hours |  |  |  |  |  |  |  |  |  |  |  |  |  |  | 
C[n+]1cccc(C(=O)O[C@H]2CC[C@]3(C)[C@H]4C(=O)C=C5[C@@H]6C[C@@](C)(C(=O)O)CC[C@]6(C)CC[C@@]5(C)[C@]4(C)CC[C@H]3C2(C)C)c1 [Compound B] | significant inhibitory effect |  | comparable to that of the non-stimulated microglia | notably more effective than Compound A | fell in accordance with the concentration of these compounds | inhibited in a concentration-dependent manner | about 14 days | about 2 weeks | significantly greater than the PBS administered group | significant moderation effect | significantly moderated the observed reduction in freezing behavior time | dose-dependent increase in the freezing behavior time | about the same as that of the PBS administered group | fell significantly | significant reduction | significant reduction | significantly increased
CC1(C)[C@@H](OC(=O)c2cccnc2)CC[C@]2(C)[C@H]3C(=O)C=C4[C@@H]5C[C@@](C)(C(=O)O)CC[C@]5(C)CC[C@@]4(C)[C@]3(C)CC[C@@H]12 [Compound A] |  |  |  |  | fell in accordance with the concentration of these compounds | inhibited in a concentration-dependent manner |  |  |  |  |  |  |  |  |  |  | 
